SMILES strings stand for the structures.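 48-hour exposure; five concentrations; linearly interpolated endpoints. At the GI50, growth is halved. TGI: total growth inhibition.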

Some test systems named below: SNB-75 CNS; IGROV1 ovarian; UACC-257 melanoma; SNB-19 CNS; K-562 leukemia; SF-295 CNS; MDA-MB-231 breast; T-47D breast; HCT-15 colon; MCF7 breast.
Common to all, as to assay: NCI anticancer screen, dose series, 48 h

For the molecule `O=C1C[C@@H]2[C@@H](CCC23CC3)N1`, the TGI with SNB-75 CNS, with IGROV1 ovarian, in the assay with UACC-257 melanoma, in the assay with SNB-19 CNS, in the assay on K-562 leukemia and in the assay with SF-295 CNS was greater than 100 µM each time.
Take `Cc1ccnc2nc(N)ccc12`: the TGI with SNB-75 CNS, with MDA-MB-231 breast, with IGROV1 ovarian, in the assay on UACC-257 melanoma, with SNB-19 CNS and in the assay with K-562 leukemia was greater than 100 µM in each case. In addition, the TGI with T-47D breast, in the assay with SF-295 CNS and in the assay on HCT-15 colon was greater than 100 µM throughout.
For the molecule `COc1cccc(/C(Cl)=C(\C=O)c2cccc(OC)c2)c1`, the TGI was 40.5 µM with SNB-75 CNS; 47.8 µM in the assay with IGROV1 ovarian; 42.4 µM with UACC-257 melanoma; 38.2 µM in the assay with SNB-19 CNS; 46 µM in the assay with K-562 leukemia; 35.6 µM in the assay with SF-295 CNS. In the assay with HCT-15 colon, this molecule had a TGI of 20.1 µM.
Consider `O=NN(CCF)C(=O)NC1CC2CCC1C2` (stereo not given), for which the TGI in the assay on SNB-75 CNS, in the assay on IGROV1 ovarian, with UACC-257 melanoma, in the assay on SNB-19 CNS, in the assay with K-562 leukemia and in the assay on SF-295 CNS was greater than 100 µM in each case. For the same molecule, the TGI in the assay with HCT-15 colon and in the assay with MCF7 breast was greater than 100 µM in each case.
As to `COC(=O)C(=O)C(C(=O)C(=O)Nc1cccc([N+](=O)[O-])c1)c1nc2ccc(Cl)cc2[nH]c1=O` (stereo not given), the TGI in the assay with SNB-75 CNS, in the assay with MDA-MB-231 breast, with IGROV1 ovarian, in the assay with UACC-257 melanoma, in the assay with SNB-19 CNS and with SF-295 CNS was greater than 100 µM in each case. Moreover, the TGI with HCT-15 colon and in the assay with MCF7 breast was greater than 100 µM in each case.
Consider `O=C1Nc2cc([N+](=O)[O-])c(Br)cc2C1=O`, for which the TGI in the assay with SNB-75 CNS came out at 52 µM; in the assay on IGROV1 ovarian, 32.7 µM; with UACC-257 melanoma it was 35.1 µM; in the assay with K-562 leukemia it was 55.7 µM; in the assay on SF-295 CNS, 14.3 µM; with HCT-15 colon, 37.1 µM.
On to `O=C1C=C2CCC[C@H]3OC(=O)C[C@@]23CC1`, for which the TGI in the assay with MDA-MB-231 breast, in the assay on IGROV1 ovarian, in the assay with UACC-257 melanoma, in the assay on SNB-19 CNS, in the assay with K-562 leukemia and with T-47D breast was greater than 100 µM in each case. Further, the TGI in the assay on SF-295 CNS and in the assay with HCT-15 colon was greater than 100 µM in each case.
`COc1ccc2nc3c(c(NCCCN(C)C)c2c1)CCCC3`: the TGI was found to be 26.9 µM in the assay with SNB-75 CNS; 47 µM in the assay on IGROV1 ovarian; 31.3 µM with UACC-257 melanoma; 48.8 µM with SNB-19 CNS; 8.3 µM in the assay with K-562 leukemia; 29 µM with SF-295 CNS. For the same molecule, the TGI in the assay on HCT-15 colon is 33.9 µM.
For the molecule `CN(C)/C=N\c1ccnc(=O)[nH]1`, the TGI in the assay on SNB-75 CNS, with IGROV1 ovarian, with UACC-257 melanoma, in the assay on K-562 leukemia, in the assay on SF-295 CNS and with HCT-15 colon was greater than 100 µM in each case.
With `COc1cc(C2C(Cl)C(=O)N2NC(=O)c2ccc(NC(C)=O)cc2)ccc1O` (stereo not given), the TGI in the assay with IGROV1 ovarian, in the assay on UACC-257 melanoma, in the assay on SNB-19 CNS, in the assay with K-562 leukemia, in the assay on SF-295 CNS and in the assay on HCT-15 colon was greater than 100 µM each time.
In the case of `N#C/C(=C\c1ccc([N+](=O)[O-])s1)c1nc2cc(Cl)ccc2s1`, the GI50 with MDA-MB-231 breast was 0.297 µM; in the assay with IGROV1 ovarian it was 0.94 µM; with SNB-19 CNS, 1.58 µM; with K-562 leukemia, 0.264 µM; in the assay with T-47D breast, 1.88 µM; with HCT-15 colon, 0.246 µM. The TGI in the assay on MDA-MB-231 breast was 1.21 µM; in the assay with IGROV1 ovarian, 4.52 µM; in the assay on SNB-19 CNS, greater than 100 µM; in the assay on K-562 leukemia, greater than 100 µM; with T-47D breast it was 4.97 µM; in the assay with HCT-15 colon, 0.622 µM.
In the case of `Cc1cccc2c1c1ccc3c(c1n2C)C(=O)C=CC3=O`, the TGI in the assay with SNB-75 CNS is 42.8 µM; in the assay with IGROV1 ovarian, 32.5 µM; in the assay on UACC-257 melanoma, 25 µM; in the assay with SNB-19 CNS, 32.3 µM; with K-562 leukemia, 6.03 µM; in the assay on SF-295 CNS, 30.9 µM. The TGI with HCT-15 colon came to 10.5 µM.
As to `CC(=O)NNc1nc(C)c(C(=O)NNC(=O)C(=O)Nc2cccc(C(C)=O)c2)s1`, the TGI with SNB-75 CNS was 38.9 µM; in the assay on IGROV1 ovarian, 60.7 µM; in the assay with UACC-257 melanoma, 49.9 µM; in the assay on SNB-19 CNS, greater than 100 µM; in the assay with K-562 leukemia, greater than 100 µM; with SF-295 CNS, 66.2 µM. For the same molecule, the TGI in the assay on HCT-15 colon turned out to be 52.5 µM.
For `Cc1ccc(-n2cc(-c3ccc(Cl)cc3)c3c(NN)ncnc32)cc1`, the TGI is 7.6 µM in the assay on SNB-75 CNS; greater than 100 µM in the assay on MDA-MB-231 breast; 11.2 µM with IGROV1 ovarian; 16.1 µM in the assay on UACC-257 melanoma; 40.9 µM in the assay on SNB-19 CNS; 12 µM with K-562 leukemia. For the same molecule, the TGI worked out at 26.6 µM with T-47D breast, 10.7 µM with SF-295 CNS and 26.1 µM in the assay with HCT-15 colon.
On to `Cc1cc(NC(=O)C2C3C=CC(O3)C2C(=O)O)no1` (stereo not given), for which the TGI in the assay on SNB-75 CNS is greater than 100 µM; with IGROV1 ovarian it was greater than 100 µM; in the assay on UACC-257 melanoma it was 64 µM; in the assay with SNB-19 CNS, greater than 100 µM; with K-562 leukemia, 42.5 µM; in the assay on SF-295 CNS, greater than 100 µM. In the assay on HCT-15 colon, this molecule returned a TGI of 37.4 µM.
As to `[O-][n+]1c(CN2CCCCC2)nc2cccc3c2c1-c1ccccc1-3`, the TGI with SNB-75 CNS was 50.2 µM; in the assay on MDA-MB-231 breast, 95.6 µM; in the assay on IGROV1 ovarian, greater than 100 µM; in the assay with UACC-257 melanoma, 39.4 µM; in the assay on SNB-19 CNS, 89.4 µM; with K-562 leukemia, greater than 100 µM. Moreover, the TGI with SF-295 CNS is 84 µM; with HCT-15 colon, greater than 100 µM; in the assay with MCF7 breast it was 76.5 µM.
As to `C[S+](C)CC1OC(n2cnc3c(N)ncnc32)C(O)C1O` (stereo not given), the TGI in the assay with SNB-75 CNS, with IGROV1 ovarian, with UACC-257 melanoma, in the assay on SNB-19 CNS, with K-562 leukemia and with SF-295 CNS was greater than 225 µM each time. Moreover, the TGI with HCT-15 colon and in the assay with MCF7 breast was greater than 225 µM in each case.

The values are drawn from PubChem BioAssay (NCI).
